Experimental findings from US20240058450A1, “BCL-XL Inhibitory Compounds Having Low Cell Permeability and Antibody Drug Conjugates Including the Same” (AbbVie Inc., priority 2014, published 2024) are described below.

Like-named read-outs stand apart in the source and are kept apart here.

One experiment deals with Bcl-xL (Homo sapiens, UniProt Q07817). The experiment in a line: Time Resolved-Fluorescence Resonance Energy Transfer (TR-FRET) binding assay, competition with probe F-Bak. The procedure:
Tb-anti-GST antibody was purchased from Invitrogen (Catalog No. PV4216).
For the assay, test compounds were serially diluted in DMSO starting at 50 μM (2× starting concentration; 10% DMSO) and 10 μL transferred into a 384-well plate. 10 μL of a protein/probe/antibody mix was then added to each well at final concentrations listed below:
The samples were then mixed on a shaker for 1 minute and incubated for an additional 2 hours at room temperature. For each assay plate, a probe/antibody and protein/antibody/probe mixture were included as a negative and a positive control, respectively. Fluorescence was measured on the Envision (Perkin Elmer) using a 340/35 nm excitation filter and 520/525 (F-Bak) and 495/510 nm (Tb-labeled anti-his antibody) emission filters. Dissociation constants (Ki) were determined using Wang's equation (Wang, 1995, FEBS Lett. 360:111-114). The TR-FRET assay can be performed in the presence of varying concentrations of human serum (HS) or fetal bovine serum (FBS). Compounds were tested both without HS and in the presence of 1% HS.
(Time-resolved FRET reads energy transfer from a long-lived donor to a nearby acceptor.)

Experiment [1] concerns Molt-4 human acute lymphoblastic leukemia cells. The experiment in a line: Molt-4 cell viability assay (CellTiter-Glo, 48 hours, 10% HS). Conditions: non-permeabilized cells. The format is cell-based. The procedure:
The ability of Bcl-xL inhibitors that are able to traverse cell membranes to inhibit Bcl-xL can be determined in cell-based killing assays using a variety of cell lines and mouse tumor models. For example, their activity on cell viability can be assessed on a panel of cultured tumorigenic and non-tumorigenic cell lines, as well as primary mouse or human cell populations.
In one exemplary set of conditions, Molt-4 (ATCC, Manassas, VA) human acute lymphoblastic leukemia cells were plated 12,500 cells per well in 384-well tissue culture plates (Corning, Corning, NY) in a total volume of 25 μL tissue culture medium supplemented with 10% human serum (Sigma-Aldrich, St. Louis, MO) and treated with a 3-fold serial dilution of the compounds of interest from 10 μM to 0.0005 μM. Each concentration was tested in duplicate at least 3 separate times. The number of viable cells following 48 hours of compound treatment was determined using the CellTiter-Glo®, Luminescent Cell Viability Assay according to the manufacturer's recommendations (Promega Corp., Madison, WI). Compounds were tested in the presence of 10% HS.

Setting [2] is: in the presence of 1% HS, read-out: Bcl-xL Binding Ki (nM, 1% HS).
The mark [3] stands for this setting: without HS, read-out: Bcl-xL Binding Ki.

Sequence of Bcl-xL (Q07817 whole entry): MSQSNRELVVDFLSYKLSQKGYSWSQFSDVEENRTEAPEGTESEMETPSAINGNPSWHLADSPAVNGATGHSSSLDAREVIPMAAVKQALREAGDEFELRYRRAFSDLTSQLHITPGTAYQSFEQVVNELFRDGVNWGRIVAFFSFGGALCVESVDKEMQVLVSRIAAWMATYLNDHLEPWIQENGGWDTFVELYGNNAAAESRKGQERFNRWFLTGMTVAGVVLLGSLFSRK

`Cc1c(-c2ccc(N3CCc4cccc(C(=O)Nc5nc6ccccc6s5)c4C3)nc2C(=O)O)cnn1CC12CC3(C)CC(C)(C1)CC(OCCN(C)C(=O)[C@H](N)CC(=O)O)(C3)C2` [Example 1.27]: the Ki (in general, a dissociation constant, usually derived from enzyme kinetics or from competition with a known ligand) at Bcl-xL (setting [2]) is 0.18 nM; on Bcl-xL (setting [3]) it was under 0.001 nM. Besides, the EC50 (in general, the concentration that produces a half-maximal response) in experiment [1] turned out to be 935 nM.
In the case of `Cc1c(-c2ccc(N3CCc4cccc(C(=O)Nc5nc6ccccc6s5)c4C3)nc2C(=O)O)cnn1CC12CC3(C)CC(C)(C1)CC(OCCNC1CCN(CC(=O)O)CC1)(C3)C2` [Example 1.28, 6-[8-(1,3-benzothiazol-2-ylcarbamoyl)-3,4-dihydroisoquinolin-2 (1H)-yl]-3-(1-{[3-(2-{[1-(carboxymethyl)piperidin-4-yl]amino}ethoxy)-5,7-dimethyltricyclo[3.3.1.1^3,7]dec-1-yl]methyl}-5-methyl-1H-pyrazol-4-yl}pyridine-2-carboxylic acid], the Ki at Bcl-xL (setting [2]) was 0.046 nM; on Bcl-xL (setting [3]), under 0.001 nM. Also, the concentration for a half-maximal effect (EC50) in experiment [1] (Homo sapiens, MOLT-4, 48 h) was determined as 568 nM.
Taken in the same sequence, the figures for `Cc1c(-c2ccc(N3CCc4cccc(C(=O)Nc5nc6ccccc6s5)c4C3)nc2C(=O)O)cnn1CC12CC3(C)CC(C)(C1)CC(OCCN(CCS(=O)(=O)O)C1CCNCC1)(C3)C2` [Example 1.30, 6-[8-(1,3-benzothiazol-2-ylcarbamoyl)-3,4-dihydroisoquinolin-2 (1H)-yl]-3-{1-[(3,5-dimethyl-7-{2-[piperidin-4-yl(2-sulfoethyl)amino]ethoxy}tricyclo[3.3.1.1^3,7]dec-1-yl)methyl]-5-methyl-1H-pyrazol-4-yl}pyridine-2-carboxylic acid] were 0.12 nM, under 0.001 nM and 184 nM.
As for `CNCCOC12CC3(C)CC(C)(CC(Cn4ncc(-c5ccc(N6CCc7c(OCCCP(=O)(O)O)ccc(C(=O)Nc8nc9ccccc9s8)c7C6)nc5C(=O)O)c4C)(C3)C1)C2` [Example 1.31, 6-[8-(1,3-benzothiazol-2-ylcarbamoyl)-5-(3-phosphonopropoxy)-3,4-dihydroisoquinolin-2 (1H)-yl]-3-[1-({3,5-dimethyl-7-[2-(methylamino)ethoxy]tricyclo[3.3.1.1^3,7]dec-1-yl}methyl)-5-methyl-1H-pyrazol-4-yl]pyridine-2-carboxylic acid], the results for the Ki on Bcl-xL (setting [2]) and on Bcl-xL (setting [3]) were 0.055 nM and under 0.001 nM, respectively. Moreover, the EC50 in experiment [1] (Homo sapiens, MOLT-4, 48 h) came out at 446 nM.
`Cc1c(-c2ccc(N3CCc4cccc(C(=O)Nc5nc6ccccc6s5)c4C3)nc2C(=O)O)cnn1CC12CC3(C)CC(C)(C1)CC(OCCN(CCN)CCS(=O)(=O)O)(C3)C2` [Example 1.33, 3-{1-[(3-{2-[(2-aminoethyl)(2-sulfoethyl)amino]ethoxy}-5,7-dimethyltricyclo[3.3.1.1^3,7]dec-1-yl)methyl]-5-methyl-1H-pyrazol-4-yl}-6-[8-(1,3-benzothiazol-2-ylcarbamoyl)-3,4-dihydroisoquinolin-2 (1H)-yl]pyridine-2-carboxylic acid]: the Ki is 0.12 nM on Bcl-xL (setting [2]) and under 0.001 nM at Bcl-xL (setting [3]). Further, it took 319 nM to reach a half-maximal effect in experiment [1] (Homo sapiens, MOLT-4, 48 h) (EC50).
Take `CNCCOC12CC3(C)CC(C)(CC(Cn4ncc(-c5ccc(N6CCc7c(OCCN)ccc(C(=O)Nc8nc9ccccc9s8)c7C6)nc5C(=O)O)c4C)(C3)C1)C2` [Example 1.34, 6-[5-(2-aminoethoxy)-8-(1,3-benzothiazol-2-ylcarbamoyl)-3,4-dihydroisoquinolin-2 (1H)-yl]-3-[1-({3,5-dimethyl-7-[2-(methylamino)ethoxy]tricyclo[3.3.1.1^3,7]dec-1-yl}methyl)-5-methyl-1H-pyrazol-4-yl]pyridine-2-carboxylic acid]: the Ki at Bcl-xL (setting [2]) was 0.031 nM. For the same molecule, the EC50 in experiment [1] (Homo sapiens, MOLT-4, 48 h) was 87.7 nM.
For `Cc1c(-c2ccc(-c3ccc4cccc(C(=O)Nc5nc6ccccc6s5)c4c3)nc2C(=O)O)cnn1CC12CC3(C)CC(C)(C1)CC(OCCNCCCS(=O)(=O)O)(C3)C2` [Example 1.35, 6-[8-(1,3-benzothiazol-2-ylcarbamoyl)naphthalen-2-yl]-3-{1-[(3,5-dimethyl-7-{2-[(3-sulfopropyl)amino]ethoxy}tricyclo[3.3.1.1^3,7]dec-1-yl)methyl]-5-methyl-1H-pyrazol-4-yl}pyridine-2-carboxylic acid], the Ki on Bcl-xL (setting [2]) is 0.439 nM; at Bcl-xL (setting [3]), under 0.001 nM. The midpoint of the response in experiment [1] (Homo sapiens, MOLT-4, 48 h), the EC50, lay at 238 nM.
